Test results from US7662644B2, “Labeled peptides, proteins and antibodies and processes and intermediates useful for their preparation” (priority 2000, dated 2010).

B1: mero-CBD: cdc42 binding domain of WASP conjugated to the merocyanine dye shown in FIG. 11 (conjugate)
chain: DIQNPDITSSRYRGLPAPGPSPADKKRSGKKKISKADIGAPSGFKHVSHVGWDPQNGFDVNNLDPDLRSLCSRAGISEAQLTDAETSKLIYDFIEDQGGLEAVRQEMRRQEPLPPPPPPSR
modifications: left off: small tags and cut ends

Assays:
[1] = Spectral data for selected merocyanine dyes (absorbance and fluorescence spectra); assay type: physicochemical; design: Absorption Maximum / Emission Maximum: unit not given here; conditions: in n-butanol
Procedure: Absorbance spectra were recorded on Hewlett-Packard HP8452 diode array spectrophotometer and fluorescence spectra were recorded on SPEX Fluorolog 2 spectrometer.

[2] = molecular target: T1, Rac (Homo sapiens, UniProt P63000); conditions: literature value; read-out: previously reported GTPγS dissociation constant; cited from earlier work
T1 construct: ECFP or EYFP (fusion partner)

[3] = molecular target: T2, GFP-Rac1 (Homo sapiens, UniProt P63000); assay: In vitro FRET titration of Alexa-PBD with GFP-Rac1; assay type: binding; conditions: at saturating Alexa-PBD; read-out: apparent GTPγS dissociation constant
T2 construct: 6His; made in house; host or cells: E. coli BL21DE3 (stated for PBD; 'similar procedure' for GFP-Rac1)
Procedure: FRET between Alexa-PBD and GFP-Rac1 was efficient and dependent on GTP-Rac 1 binding. […] Purified GFP-Rac1 (200 nM) was bound to varying concentrations of […] or GDP at low magnesium by 30 min incubation at 30° C. as described previously (U. G. Knaus et al., J. Biol. Chem. 267, 23575-23582 (1992)), using the following nucleotide equilibration buffer: 50 mM Tris HCl (pH 7.6), 50 mM NaCl, 5 mM MgCl2, 10 mM EDTA, and 1 mM DTT. […] Spectra were corrected for dilution upon Alexa-PBD addition. Alexa-PBD concentrations were either varied as shown, or maintained at 1 micromolar when saturating Alexa-PBD was required. The spectra shown were corrected for direct excitation of the Alexa fluorophore by acquiring spectra of Alexa-PBD alone at equivalent concentrations, and subtracting these from spectra shown in FIG. 7. Kd were determined by fitting to the equation: Y=A*X/(Kd+X). In the FIG. 7, panel A inset, only points actually used in the curve fitting are shown. Higher, saturating concentrations of AlexaPBD were not used because errors from subtraction of direct Alexa excitation became larger. […] The apparent GTPγS dissociation constant was determined at saturating Alexa-PBD by fitting the experimental data to the Michaelis equation (FIG. 7b). […]

[4] = molecular target: T3, RhoA (Homo sapiens, UniProt P61586); assay: Fluorescence of mero-CBD in presence of RhoA-GTPγS; assay type: binding; conditions: RhoA-GTPγS present
T3 construct: 6His; made in house; host or cells: E. coli BL21DE3 (by 'analogous procedures')
Procedure: (§1) Analyses of the solvatochromic activation indicator—A solution of mero-CBD (300 nM) in assay buffer was mixed 1:1 (v/v) with solutions of cdc42 (concentration as indicated), pre-equilibrated with 10 mM GDP or GTPγS as described in Knaus, U. G., Heyworth, P. G., Kinsella, B. T., Cumutte, J. T., and Bokoch, G. M. (1992) J. Biol. Chem. 267, 23575-23582. Emission wavelength of 630 nm and excitation wavelength of 600 nm were used to acquire excitation and emission spectra, respectively. For nucleotide dependence, cdc42 (500 nM) was pre-incubated with varying concentrations of GTPγS (1 to 500 nM). Rac1 and RhoA GTPases were pre-equilibrated with GTPγS in the same manner.
(§2) Fluorescence increase as a measure of CBD-cdc42 interaction—The functionality and specificity of mero-CBD was characterized by measuring fluorescence in the presence of saturating amounts of cdc42-GDP or cdc42-GTPγS. […] Negligible increase (<5%) was also observed in the presence of activated Rac1. No effect on the mero-CBD fluorescence was observed when RhoA-GTPγS was present. Furthermore, even in the presence of excess of activated Rac1 and RhoA, GDP- and GTPγS-bound forms of cdc42 were easily distinguished by CBD-A4C fluorescence (data not shown).

[5] = Storage of labeled CBD aliquots; assay type: physicochemical; conditions: aliquots 15 to 50 μM stored at −80° C. for 6 months
Procedure: Conjugation of CBD with fluorescent dyes—Dialyzed CBD samples (100-150 μM) were gently inverted with 6 to 7-fold molar excess of the reactive dye at 25° C. for 3 to 4 hours. The reaction was stopped by addition of 10 mM dithiothreitol (DTT), and the mixture was incubated for 15 min. Unreacted dye was separated from the labeled protein using […] (Pharmacia) gel filtration column equilibrated and developed with 25 mM Na2HPO4 (pH 7.5). Purity of the eluting fractions was analyzed by running an aliquot on an SDS gel and visualizing the fluorescence. Only the fractions containing minimal amounts of free dye were used in the subsequent experiments. Dye-to-protein ratio was determined by measuring CBD concentration (ε^280=8,250 M^−1), and A4C concentration at 617 nm (ε=70,000 M^−1 in dimethylsulfoxide) or Alexa546 at 554 nm (ε=104,000 M^−1 in 50 mM potassium phosphate, pH 7.0). Concentrations of CBD were independently confirmed by Coomassie Plus assay (Pierce) calibrated with bovine serum albumin as a standard. Dye-to-protein ratios thus obtained varied between 0.8 and 1.2, 1.7 and 2.1 for the single-dye and dual-dye conjugates, respectively. Aliquots of the labeled CBD (15 to 50 μM) were stored at −80° C. […] In this example, CBD-conjugates were made with the dye shown in FIG. 11, and are referred to as mero-CBD (for merocyanines dye conjugated to CBD).

[6] = molecular target: T4, cdc42 (Homo sapiens, UniProt P60953); assay: Fluorescence of mero-CBD on binding cdc42; conditions: for increase of fluorescence on binding activated cdc42 (cdc42-GTPγS): saturating cdc42-GTPγS
T4 construct: 6His; made in house; host or cells: E. coli BL21DE3 (stated for CBD; 'analogous procedures' for cdc42)
Procedure: as §1, §2

[7] = molecular target: T5, Rac1 (Homo sapiens, UniProt P63000); assay: Fluorescence of mero-CBD in presence of activated Rac1; assay type: binding; conditions: Rac1 pre-equilibrated with GTPγS
T5 construct: 6His; made in house; host or cells: E. coli BL21DE3 (by 'analogous procedures')
Procedure: as §1, §2

T4 sequence (P60953 whole entry, species assumed): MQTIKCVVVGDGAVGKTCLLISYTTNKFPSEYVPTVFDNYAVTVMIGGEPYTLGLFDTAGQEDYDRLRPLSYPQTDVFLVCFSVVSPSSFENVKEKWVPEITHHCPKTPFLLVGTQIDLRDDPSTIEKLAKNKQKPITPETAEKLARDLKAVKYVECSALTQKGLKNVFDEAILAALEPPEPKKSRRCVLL
T3 sequence (P61586 whole entry, species assumed): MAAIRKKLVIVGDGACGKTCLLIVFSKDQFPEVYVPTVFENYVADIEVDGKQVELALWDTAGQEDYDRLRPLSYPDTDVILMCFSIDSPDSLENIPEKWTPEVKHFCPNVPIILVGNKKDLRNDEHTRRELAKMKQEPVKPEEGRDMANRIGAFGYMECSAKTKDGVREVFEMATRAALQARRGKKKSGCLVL

Row | Molecule | Absorption Maximum [1] | Emission Maximum [1] | Extinction coefficient (*10^−3) [1] | Quantum Yield [1] | also measured
1 | CC1(C)/C(=C/C=C/C=C2/C(=O)c3ccccc3C2=C(C#N)C#N)N(CCCS(=O)(=O)[O-])c2ccccc21.[Na+] [Compound 4] | 667 | 693 | 80 | 0.10 | 
2 | Nc1nc2c(ncn2[C@@H]2O[C@H](COP(=O)(O)OP(=O)(O)OP(O)(O)=S)[C@@H](O)[C@H]2O)c(=O)[nH]1 [GTPγS] |  |  |  |  | Kd [2]: 0.05 µM; Kd [3]: 0.047 ± 0.009 µM
3 | CC1(C)/C(=C/C=C/C=C2/C(=O)c3ccccc3S2(=O)=O)N(CCCS(=O)(=O)[O-])c2ccccc21.[Na+] [Compound 3] | 586 | 618 | 120 | 0.17 | 
4 | B1 |  |  |  |  | effect of RhoA-GTPγS on fluorescence [4]: No effect; loss of binding ability on storage [5]: No significant loss of binding ability; increase of fluorescence with cdc42-GDP ([6]; saturating cdc42-GDP): but not cdc42-GDP; increase of fluorescence on binding activated cdc42 (cdc42-GTPγS) [6]: Approximately 3.5 fold; increase of fluorescence on binding activated cdc42 (cdc42-GTPγS) ([6]; listed as CBD biosensor): up to 3.5 fold; increase of fluorescence in the presence of activated Rac1 [7]: < 5%
